{"source": "the supplement of paper PMC10307832", "test_in_all_cases": "relative viability (nuclei count vs DMSO), 5 days (fraction); higher = more cells survive", "key": {"SW 1573": {"tested_on": "SW 1573", "in_short": "(§1)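 Dosing by pin tool came one day after lung cancer cell lines were seeded in 1536-well plates, using either one drug or a fixed anchor-drug dose plus five library-drug doses (not always all listed) in √10 steps. After 5 days, nuclei were counted on 4× images. Relative viability is treated-well nuclei count divided by vehicle-well nuclei count, and values are medians of duplicate plates.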"}, "NCI-H1755": {"tested_on": "NCI-H1755", "in_short": "as §1"}, "A-427": {"tested_on": "A-427", "in_short": "as §1"}, "NCI-H1792": {"tested_on": "NCI-H1792", "in_short": "as §1"}, "NCI-H1915": {"tested_on": "NCI-H1915", "in_short": "as §1"}, "NCI-H1355": {"tested_on": "NCI-H1355", "in_short": "as §1"}, "NCI-H727": {"tested_on": "NCI-H727", "in_short": "as §1"}, "NCI-H2228": {"tested_on": "NCI-H2228", "in_short": "as §1"}, "HCC-827": {"tested_on": "HCC-827", "in_short": "as §1"}, "SK-LU-1": {"tested_on": "SK-LU-1", "in_short": "as §1"}, "NCI-H23": {"tested_on": "NCI-H23", "in_short": "as §1"}, "NCI-H1395": {"tested_on": "NCI-H1395", "in_short": "as §1"}}, "data": [{"smiles": "Clc1ccc(Nc2nnc(Cc3ccncc3)c3ccccc23)cc1", "note": "[Vatalanib] + C[C@]1(O)C[C@@H](c2nc(-c3ccc4ccc(-c5ccccc5)nc4c3)c3c(N)nccn32)C1 [Linsitinib] (partner 1 µM)", "values": [{"measurement": "relative viability", "setting": "SW 1573; first compound 0.04 µM", "value": 1}, {"measurement": "relative viability", "setting": "SW 1573; first compound 0.1265 µM", "value": 0.791}, {"measurement": "relative viability", "setting": "SW 1573; first compound 0.4 µM", "value": 0.781}, {"measurement": "relative viability", "setting": "SW 1573; first compound 1.265 µM", "value": 0.802}, {"measurement": "relative viability", "setting": "SW 1573; first compound 4 µM", "value": 0.723}, {"measurement": "relative viability", "setting": "NCI-H1755; first compound 0.04 µM", "value": 0.984}, {"measurement": "relative viability", "setting": "NCI-H1755; first compound 0.1265 µM", "value": 1.04}, {"measurement": "relative viability", "setting": "NCI-H1755; first compound 0.4 µM", "value": 0.995}, {"measurement": "relative viability", "setting": "NCI-H1755; first compound 1.265 µM", "value": 0.991}, {"measurement": "relative viability", "setting": "NCI-H1755; first compound 4 µM", "value": 0.919}, {"measurement": "relative viability", "setting": "A-427; first compound 0.04 µM", "value": 1.15}, {"measurement": "relative viability", "setting": "A-427; first compound 0.1265 µM", "value": 1.1}, {"measurement": "relative viability", "setting": "A-427; first compound 0.4 µM", "value": 1.13}, {"measurement": "relative viability", "setting": "A-427; first compound 1.265 µM", "value": 1.06}, {"measurement": "relative viability", "setting": "A-427; first compound 4 µM", "value": 1.1}, {"measurement": "relative viability", "setting": "NCI-H1792; first compound 0.04 µM", "value": 0.465}, {"measurement": "relative viability", "setting": "NCI-H1792; first compound 0.1265 µM", "value": 0.494}, {"measurement": "relative viability", "setting": "NCI-H1792; first compound 0.4 µM", "value": 0.506}, {"measurement": "relative viability", "setting": "NCI-H1792; first compound 1.265 µM", "value": 0.493}, {"measurement": "relative viability", "setting": "NCI-H1792; first compound 4 µM", "value": 0.515}, {"measurement": "relative viability", "setting": "NCI-H1915; first compound 0.04 µM", "value": 1.06}, {"measurement": "relative viability", "setting": "NCI-H1915; first compound 0.1265 µM", "value": 1.09}, {"measurement": "relative viability", "setting": "NCI-H1915; first compound 0.4 µM", "value": 1.09}, {"measurement": "relative viability", "setting": "NCI-H1915; first compound 1.265 µM", "value": 1.04}, {"measurement": "relative viability", "setting": "NCI-H1915; first compound 4 µM", "value": 1.09}, {"measurement": "relative viability", "setting": "NCI-H1355; first compound 0.04 µM", "value": 0.87}, {"measurement": "relative viability", "setting": "NCI-H1355; first compound 0.1265 µM", "value": 0.818}, {"measurement": "relative viability", "setting": "NCI-H1355; first compound 0.4 µM", "value": 0.915}, {"measurement": "relative viability", "setting": "NCI-H1355; first compound 1.265 µM", "value": 0.772}, {"measurement": "relative viability", "setting": "NCI-H1355; first compound 4 µM", "value": 0.763}, {"measurement": "relative viability", "setting": "NCI-H727; first compound 0.04 µM", "value": 0.3}, {"measurement": "relative viability", "setting": "NCI-H727; first compound 0.1265 µM", "value": 0.184}, {"measurement": "relative viability", "setting": "NCI-H727; first compound 0.4 µM", "value": 0.358}, {"measurement": "relative viability", "setting": "NCI-H727; first compound 1.265 µM", "value": 0.236}, {"measurement": "relative viability", "setting": "NCI-H727; first compound 4 µM", "value": 0.285}, {"measurement": "relative viability", "setting": "NCI-H2228; first compound 0.04 µM", "value": 0.825}, {"measurement": "relative viability", "setting": "NCI-H2228; first compound 0.1265 µM", "value": 0.508}, {"measurement": "relative viability", "setting": "NCI-H2228; first compound 0.4 µM", "value": 0.83}, {"measurement": "relative viability", "setting": "NCI-H2228; first compound 1.265 µM", "value": 0.664}, {"measurement": "relative viability", "setting": "NCI-H2228; first compound 4 µM", "value": 0.761}, {"measurement": "relative viability", "setting": "HCC-827; first compound 0.04 µM", "value": 0.992}, {"measurement": "relative viability", "setting": "HCC-827; first compound 0.1265 µM", "value": 0.925}, {"measurement": "relative viability", "setting": "HCC-827; first compound 0.4 µM", "value": 0.95}, {"measurement": "relative viability", "setting": "HCC-827; first compound 1.265 µM", "value": 0.936}, {"measurement": "relative viability", "setting": "HCC-827; first compound 4 µM", "value": 0.905}, {"measurement": "relative viability", "setting": "SK-LU-1; first compound 0.04 µM", "value": 1.45}, {"measurement": "relative viability", "setting": "SK-LU-1; first compound 0.1265 µM", "value": 1.13}, {"measurement": "relative viability", "setting": "SK-LU-1; first compound 0.4 µM", "value": 1.28}, {"measurement": "relative viability", "setting": "SK-LU-1; first compound 1.265 µM", "value": 1.04}, {"measurement": "relative viability", "setting": "SK-LU-1; first compound 4 µM", "value": 1.03}, {"measurement": "relative viability", "setting": "NCI-H23; first compound 0.04 µM", "value": 0.533}, {"measurement": "relative viability", "setting": "NCI-H23; first compound 0.1265 µM", "value": 0.659}, {"measurement": "relative viability", "setting": "NCI-H23; first compound 0.4 µM", "value": 0.601}, {"measurement": "relative viability", "setting": "NCI-H23; first compound 1.265 µM", "value": 0.495}, {"measurement": "relative viability", "setting": "NCI-H23; first compound 4 µM", "value": 0.583}, {"measurement": "relative viability", "setting": "NCI-H1395; first compound 0.04 µM", "value": 1.14}, {"measurement": "relative viability", "setting": "NCI-H1395; first compound 0.1265 µM", "value": 0.99}]}]}
